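Cells were grown in 96-well plates and exposed to each compound for 48 hours at five concentrations; endpoints were interpolated linearly between bracketing concentrations, or set to the highest concentration if not reached. TGI marks complete inhibition of growth.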

These results are taken from PubChem BioAssay (NCI).

Holding throughout (experiment): NCI tumour cell line growth inhibition, 48 h
In experiment [1] the test system is HOP-62 NSCLC.
Experiment [2] relates to OVCAR-5 ovarian.
The test system of experiment [3] is 786-0 renal.
Experiment [4] relates to UACC-257 melanoma.
The test system of experiment [5] is HCC-2998 colon.
For experiment [6], the system named is UACC-62 melanoma.
In experiment [7] the test system is SNB-75 CNS.
Experiment [8] deals with A549 NSCLC.
Experiment [9] relates to MOLT-4 leukemia.
The test system of experiment [10] is CCRF-CEM leukemia.
In experiment [11] the test system is SN12C renal.
For experiment [12], the system named is NCI-H23 lung.
Experiment [13] deals with COLO 205 colon.
Experiment [14] relates to PC-3 prostate.

For the compound `Cc1ccc2sc3cc(=O)cc(C)c-3nc2c1`, the TGI in experiment [1] was > 100 µM; in experiment [2] it was > 100 µM; in experiment [3], > 100 µM; in experiment [4], > 100 µM; in experiment [5], > 100 µM; in experiment [6], 36 µM. For the same compound, the TGI in [7] is > 100 µM; in [8], > 100 µM; in [9], > 100 µM; in experiment [10], 93.8 µM; in experiment [11], > 100 µM; in experiment [12], > 100 µM. Also, the TGI in [13] was > 100 µM.
Take `CCCCOC(=O)/C(CC(=O)C=C(C)C)=N\NS(=O)(=O)c1ccc(C)cc1`: the TGI in experiment [1], in experiment [2], in [3], in [4], in [5] and in experiment [6] was > 100 µM in each case. Moreover, the TGI in experiment [7], in experiment [8], in experiment [9], in experiment [10], in experiment [11] and in experiment [12] was > 100 µM throughout. The TGI in experiment [13] is > 100 µM.
`CCOC(=O)[C@H]1C[C@@H](C(=O)c2ccccc2)N2N=C(c3ccc(Br)cc3)C=C[C@H]12`: the TGI in [1], in experiment [2], in [3], in experiment [4], in experiment [5] and in experiment [6] was > 100 µM in each case. The TGI in experiment [7], in [8], in experiment [9], in [11], in [12] and in experiment [13] was > 100 µM in each case. Further, the TGI in experiment [14] is > 100 µM.
As for `Cc1ccc(S(=O)(=O)N/N=C2\C(=O)C3CC2C(Cl)C3Cl)cc1` (configuration not stated), the TGI in [1], in experiment [2], in experiment [3], in experiment [4], in experiment [5] and in experiment [6] was > 100 µM each time. Besides, the TGI in [7], in experiment [8], in experiment [9], in experiment [10], in experiment [11] and in experiment [12] was > 100 µM throughout. For the same compound, in [13], the TGI was > 100 µM.
In the case of `C1=CCN(c2ccccc2)CC1`, the TGI in experiment [2], in [4], in [5], in experiment [6], in [7] and in experiment [8] was > 100 µM each time. Also, the TGI in experiment [9] was > 100 µM; in experiment [10], > 100 µM; in experiment [11], 87 µM; in experiment [12], > 100 µM; in experiment [13], > 100 µM.
For the compound `O=C(Nc1ccc(C(F)(F)F)cc1[N+](=O)[O-])C(=O)C(C(=O)c1ccc2ccccc2c1)C1OC(=O)c2ccccc21` (configuration not stated), the TGI in [1] came to 14.8 µM; in experiment [2], 26.5 µM; in [3] it was 19.5 µM; in [4], 24 µM; in experiment [5], 18.3 µM; in experiment [6], 20.4 µM. For the same compound, the TGI in experiment [7] was 23 µM; in experiment [8], > 71.3 µM; in experiment [9] it was 10.6 µM; in experiment [10] it was 35.5 µM; in [11], 33.5 µM; in experiment [12], 12.1 µM. In addition, the TGI in experiment [13] worked out at 32.7 µM.
With `COC(=O)c1c/c(=N\NC(=O)CC(=O)Nc2ccccc2Cl)c2ccccc2o1`, the TGI in experiment [1], in experiment [2], in experiment [3], in [4], in experiment [5] and in experiment [6] was > 100 µM in each case. Also, the TGI in experiment [7], in [8], in experiment [9], in experiment [11], in [12] and in experiment [13] was > 100 µM throughout.
For `O=C1/C(=C/c2cccc([N+](=O)[O-])c2)COc2ccccc21`, the TGI in experiment [1] was > 30.4 µM; in [2] it was > 100 µM; in experiment [3], 3.16 µM; in [4], > 64.7 µM; in experiment [5], > 23.4 µM; in experiment [6], 3.19 µM. Besides, the TGI in [7] was > 61.5 µM; in [8], > 100 µM; in experiment [9], 6.62 µM; in experiment [12], 18.2 µM; in experiment [13], > 100 µM.
`O=C(O)Cc1cc(=O)oc2cc(O)c(Cl)cc12`: the TGI in [1], in experiment [2], in experiment [3], in experiment [5], in [6] and in experiment [7] was > 100 µM each time. Moreover, the TGI in experiment [8], in experiment [9], in [10], in experiment [11], in [12] and in experiment [13] was > 100 µM each time.
Turning to `N#CCCc1nc2ccc(Br)cc2c(=O)n1-c1ccc(O)c([N+](=O)[O-])c1`, the TGI in experiment [1] is > 100 µM; in experiment [2] it was > 100 µM; in experiment [3] it was 43.2 µM; in experiment [4], 74.3 µM; in experiment [5], 37.4 µM; in experiment [6] it was 38.5 µM. Also, the TGI in experiment [7] was 83.2 µM; in experiment [8] it was > 100 µM; in experiment [9], 54.3 µM; in experiment [10] it was 71.7 µM; in experiment [11] it was 38.6 µM; in experiment [12] it was 42 µM. Further, the TGI in experiment [13] worked out at 47.9 µM.
In the case of `Cc1nc2ccccc2nc1NS(=O)(=O)c1ccc(N)cc1`, the TGI in experiment [1], in experiment [2], in [3], in [4], in experiment [5] and in [6] was > 100 µM throughout. The TGI in experiment [7], in experiment [8], in experiment [9], in experiment [10], in experiment [11] and in experiment [12] was > 100 µM each time. The TGI in [13] was > 100 µM.
